Source: patent US5391540A, “Substituted pyridine compounds” (Rohm and Haas Company, priority 1993, dated 1995)
Several values for one entry are separate records, joined by “and”; a condition that tells them apart may be missing. Equal values may be shown once.

How the values were obtained:
Format in all cases: in vivo
Canada thistle = test: Pre-emergent herbicidal activity (Table A); conditions: Cirsium arvense, pre-emergence, Cath, 11.2 kg/ha, 10-14 days, read-out: herbicidal rating (% inhibition)
Method in brief: (§1)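 Seeds or perennial propagules set on compacted topsoil, then covered with soil mixed with a known amount of test compound applied in acetone or water carrier. Ratings assigned on a scale based on percent inhibition of each species.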

Pennsylvania Smartweed = test: Pre-emergent herbicidal activity (Table A); conditions: pre-emergence, Pesw, 11.2 kg/ha, 10-14 days, read-out: herbicidal rating (% inhibition)
Method in brief: as §1

Rhizome Johnsongrass = test: Pre-emergent herbicidal activity (Table A); conditions: Sorghum halepense, pre-emergence, Rhjg, 11.2 kg/ha, 10-14 days, read-out: herbicidal rating (% inhibition)
Method in brief: as §1

Common Lambsquarters = test: Pre-emergent herbicidal activity (Table A); conditions: Chenopodium album, pre-emergence, Colq, 11.2 kg/ha, 10-14 days, read-out: herbicidal rating (% inhibition)
Method in brief: as §1

Quackgrass = test: Pre-emergent herbicidal activity (Table A); conditions: pre-emergence, Rhqg, 11.2 kg/ha, 10-14 days, read-out: herbicidal rating (% inhibition)
Method in brief: as §1

Colq = test: plant injury after spraying emerged plants (Table D); parameters: scale not given here
Method in brief: (§2)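 Greenhouse post-emergence test: plants grown in silt loam (some with fertilizer) to 1–3 true leaf stage (9–14 days), sprayed at 170.3 kPa with emulsifier-containing solution at 1870 L/Ha delivering stated rates. Injury versus unsprayed controls scored after ~10–14 days (usually 11).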

Sube = test: as above; parameters: scale not given here
Method in brief: as §2

Pesw = test: as above; parameters: scale not given here
Method in brief: as §2

Structure (SMILES) | inhibition at 11200 g/ha (Canada thistle) [%] | inhibition at 11200 g/ha (Pennsylvania Smartweed) [%] | inhibition at 11200 g/ha (Rhizome Johnsongrass) [%] | inhibition at 11200 g/ha (Common Lambsquarters) [%] | inhibition at 11200 g/ha (Quackgrass) [%] | plant injury rating, Colq (Colq; 1.1210 kg/ha) | plant injury rating, Colq (Colq; 2.8025 kg/ha) | plant injury rating, Colq (Colq; 5.6050 kg/ha) | plant injury rating, Colq (Colq; 11.2100 kg/ha) | plant injury rating, Sube (Sube; 1.1210 kg/ha) | plant injury rating, Sube (Sube; 2.8025 kg/ha) | plant injury rating, Sube (Sube; 5.6050 kg/ha) | plant injury rating, Sube (Sube; 11.2100 kg/ha) | plant injury rating, Pesw (Pesw; 1.1210 kg/ha) | plant injury rating, Pesw (Pesw; 2.8025 kg/ha) | plant injury rating, Pesw (Pesw; 5.6050 kg/ha) | plant injury rating, Pesw (Pesw; 11.2100 kg/ha) | further results
COC(=O)c1c(O)nc(C(F)(F)F)c(C(=O)OC)c1CC(C)C [Compound 1, 3,5-pyridinedicarboxylic acid, 2-hydroxy-4-(2-methylpropyl)-6-(trifluoromethyl)-, dimethyl ester] | 0 to 24 | 0 to 24 | 0 to 24 | 0 to 24 | 0 to 24 | – | – | – | – | – | – | – | – | – | – | – | – | –
COC(=O)c1c(OC)nc(C(F)(F)Cl)c(C(=O)OC)c1CC(C)C [Compound 30, 3,5-pyridinedicarboxylic acid, 2-(chlorodifluoromethyl)-6-methoxy-4-(2-methylpropyl)-, dimethyl ester] | 75 to 100 | 75 to 100 | 75 to 100 | 75 to 100 | 75 to 100 | 0 | 1 | 1 | 2 | 1 | 1 | 1 | 1 | 0 | 1 | 1 | 1 | plant injury rating, Colq (Colq; 0.5605 kg/ha): 0; plant injury rating, Colq (Colq; 8.4075 kg/ha): 1; plant injury rating, Sube (Sube; 0.5605 kg/ha): 0; plant injury rating, Sube (Sube; 8.4075 kg/ha): 1; plant injury rating, Pesw (Pesw; 0.5605 kg/ha): 0; plant injury rating, Pesw (Pesw; 8.4075 kg/ha): 1
COC(=O)c1c(OC)nc(C(F)(F)F)c(C2=NCCS2)c1CC(C)C [Compound 50, 3-pyridinecarboxylic acid, 5-(4,5-dihydro-2-thiazolyl)-2-methoxy-4-(2-methylpropyl)-6-(trifluoromethyl)-, methyl ester] | 75 to 100 | 75 to 100 | 75 to 100 | 75 to 100 | 75 to 100 | – | – | – | – | – | – | – | – | – | – | – | – | –
COC(=O)c1c(OC)nc(C(F)(F)F)c(N=CSC)c1CC(C)C [Compound 77, 3-pyridinecarboxylic acid, 2-methoxy-4-(2-methylpropyl)-5-[[(methylthio)methylene]amino]-6-(trifluoromethyl)-, methyl ester] | 75 to 100 | 75 to 100 | 75 to 100 | 75 to 100 | 75 to 100 | 3 and 2 | 3 and 2 | 2 and 3 | 2 and 3 | 1 | 2 | 2 and 1 | 2 | 0 | 0 | 0 | 2 and 1 | –
